Measured values: ChEMBL document CHEMBL1201862, “PubChem BioAssay data set” (2004)
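Each compound was tested at five concentrations against cells in 96-well plates for 48 hours. GI50: concentration for 50% inhibition of growth.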 The source made the active and inactive calls. Rule as the data show it: active = GI50 up to about 1.1 µM and inactive = higher. Square brackets hold non-standard residues; d marks the D form. Peptide text beside a SMILES is read from it. * marks the point of attachment. AllylGly = C=CC[CH](N)C(=O)O; Boc = CC(C)(C)OC(=O)*; OtBu = CC(C)(C)O*

How the values were obtained:
Experiment in all cases: NCI tumour cell line growth inhibition, 48 h
[1] = system: MDA-N
[2] = system: NCI/ADR-RES
[3] = system: T47D
[4] = system: KM-20L2
[5] = system: LXFL 529
[6] = system: M19-MEL
[7] = system: XF498
[8] = system: SNB-78

Row | SMILES | GI50 [1] | GI50 [2] | GI50 [3] | GI50 [4] | GI50 [5] | GI50 [6] | GI50 [7] | GI50 [8]
1 | COC(=O)C1=C(OC(=O)/C=C/c2ccccc2)C(C(=O)OC)[C@@]2(O)[C@@H](C(=O)OC)[C@H](C)C[C@@H]1[C@@H]2C(=O)OC (stereo not given in full) | 19.7 µM (inactive) | 16.7 µM (inactive) | 24.5 µM (inactive) |  |  |  |  | 
2 | Cc1cnc2[nH]c(-c3cccc(Cl)c3)cc(=O)c2c1 |  | 0.054 µM (active) |  |  |  |  |  | 
3 | COc1c(-c2nc3ccc(N4CCN(C)CC4)cc3[nH]2)cc(OC)c2[nH]c(CO)nc12 | 89.7 µM (inactive) | > 100 µM (inactive) | > 100 µM (inactive) |  |  |  |  | 
4 | CCOP1(=O)CC(C)=C(Cl)C(O)C1 (stereo not given) | > 100 µM (inactive) | > 100 µM (inactive) | > 100 µM (inactive) |  |  |  |  | 
5 | CC1CC(c2cccc3c2OCO3)=Nc2ccccc2S1 (stereo not given) |  |  |  | > 100 µM (inactive) | > 100 µM (inactive) | > 100 µM (inactive) | > 100 µM (inactive) | > 100 µM (inactive)
6 | Cc1nc2c(O)c3c(c(O)c2nc1C)C1C=CC3CC1 | 2.97 µM (inactive) | 3.71 µM (inactive) | 2.79 µM (inactive) |  |  |  |  | 
7 | Cc1ccc(/N=N/c2c(O)ccc3cc(S(=O)(=O)O)cc(S(=O)(=O)O)c23)cc1 | > 100 µM (inactive) | > 100 µM (inactive) | > 100 µM (inactive) |  |  |  |  | 
8 | O=C1C(NCCF)=C(Cl)C(=O)c2ncccc21 |  |  | 2.05 µM (inactive) |  |  |  |  | 
9 | O=C(O)CSc1n[nH]c(=O)[nH]c1=O | > 100 µM (inactive) | > 100 µM (inactive) | > 100 µM (inactive) |  |  |  |  | 
10 | COc1cc(/C=C(\C#N)C(=O)c2ccccc2)ccc1OCc1ccccc1 |  |  |  | > 100 µM (inactive) |  | > 100 µM (inactive) | > 100 µM (inactive) | > 100 µM (inactive)
11 | COc1cc(C(c2cccc3ccccc23)N2C(=O)CCC2C(=O)NCc2ccccc2)cc(OC)c1OC (stereo not given) | > 100 µM (inactive) | > 100 µM (inactive) | > 100 µM (inactive) |  |  |  |  | 
12 | c1ccc(C2(c3cc4ccccc4[nH]3)OCCO2)cc1 | 49.1 µM (inactive) | 67.6 µM (inactive) | 59.8 µM (inactive) |  |  |  |  | 
13 | Nc1ncnc2c1nnn2C1C=C(CO)C(O)C1O (stereo not given) |  |  |  | 50.5 µM (inactive) | > 100 µM (inactive) | > 79.1 µM (inactive) | > 100 µM (inactive) | > 86.7 µM (inactive)
14 | CCOC(=O)c1c(NC(=O)c2ccccc2)c(C#N)c2n1CCCCC2 | > 100 µM (inactive) | > 100 µM (inactive) | > 100 µM (inactive) |  |  |  |  | 
15 | C=CCC(NC(=O)C(CC(=O)OC(C)(C)C)NC(=O)OC(C)(C)C)C(=O)OC (stereo not given) (Boc-Asp(OtBu)-[AllylGly]-OMe; configuration not given here) | 31 µM (inactive) | > 100 µM (inactive) | 37.6 µM (inactive) |  |  |  |  | 
16 | O=C(/C=C1\C[C@H]2C=Nc3ccccc3C(=O)N2C1)NCCCCNC(=O)/C=C1\C[C@H]2C=Nc3ccccc3C(=O)N2C1 | 11 µM (inactive) | 22.3 µM (inactive) | 4.39 µM (inactive) |  |  |  |  | 
17 | COc1cc(OC)c2c(c1OC)OCC(Cc1ccc(O)cc1)C2=O (stereo not given) | > 25 µM (inactive) | > 25 µM (inactive) | 8.3 µM (inactive) |  |  |  |  | 
18 | C[N+](C)(C)[BH-](Br)C(O)O (stereo not given) | > 100 µM (inactive) | > 100 µM (inactive) | > 100 µM (inactive) |  |  |  |  | 
19 | c1ccc2c(OCC3CO3)ccc(OCC3CO3)c2c1 (stereo not given) | 2.8 µM (inactive) | 4.18 µM (inactive) | 1.91 µM (inactive) |  |  |  |  | 
20 | CN(C)CC/C(=N\Nc1ccc(Cl)cc1)c1ccccc1 |  |  |  | 0.176 µM (active) | 0.182 µM (active) | 1.7 µM (inactive) |  | 1.38 µM (inactive)
21 | O=C1OC(OCC#CCOC2OC(=O)C(Cl)=C2Cl)C(Cl)=C1Cl (stereo not given) |  | 19.5 µM (inactive) | 10.7 µM (inactive) |  |  |  |  | 
22 | CC(=O)OCC1OC(n2cc(F)c(=O)[nH]c2=O)C(NC(=O)N(CCCl)N=O)C(OC(C)=O)C1OC(C)=O (stereo not given) |  |  |  | > 100 µM (inactive) | > 100 µM (inactive) | > 100 µM (inactive) | 36.4 µM (inactive) | > 100 µM (inactive)
23 | CN(C)Cc1cc(C(=O)/C=C/c2ccc(/C=C/C(=O)c3cc(CN(C)C)c(O)c(CN(C)C)c3)cc2)cc(CN(C)C)c1O | > 10 µM (inactive) | > 100 µM (inactive) | > 100 µM (inactive) |  |  |  |  | 
24 | O=C(/N=c1/[nH]/c(=N/C(=O)c2ccccc2)ss1)c1ccccc1 |  |  |  | 29.5 µM (inactive) |  | 33.6 µM (inactive) |  | 48.1 µM (inactive)
25 | Cc1nc(Nc2ccccc2)sc1C(=O)NNc1ccc([N+](=O)[O-])cc1[N+](=O)[O-] |  |  |  | 24.7 µM (inactive) | 28.7 µM (inactive) | 36 µM (inactive) | 24.3 µM (inactive) | 49.2 µM (inactive)
26 | Cc1nn(C(=O)Cc2ccccc2)c2c1C(c1ccccc1[N+](=O)[O-])SC(=N)N2 (stereo not given) | > 100 µM (inactive) |  | > 100 µM (inactive) |  |  |  |  | 
27 | O=c1c(C(c2ccc(O)cc2)c2c(O)oc3ccccc3c2=O)c(O)oc2ccccc12 | 45.2 µM (inactive) | > 100 µM (inactive) | > 100 µM (inactive) |  |  |  |  | 
